Measured values from PubChem BioAssay (NCI).
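Five compound concentrations were applied to cells in 96-well plates for 48 hours; endpoints were derived by simple linear interpolation of the resulting dose-response curve. GI50 = concentration required for 50% inhibition of growth. At the TGI there is no net growth.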

Tests used:
Assay in all cases: DTP human tumour cell line panel, 48 h
KM12 colon = system: KM12 colon
IGROV1 ovarian = system: IGROV1 ovarian
SF-295 CNS = system: SF-295 CNS
SNB-19 CNS = system: SNB-19 CNS
MOLT-4 leukemia = system: MOLT-4 leukemia
EKVX NSCLC = system: EKVX NSCLC
SF-268 CNS = system: SF-268 CNS
U251 CNS = system: U251 CNS
A498 renal = system: A498 renal
HL-60(TB) leukemia = system: HL-60(TB) leukemia
SK-OV-3 ovarian = system: SK-OV-3 ovarian
M14 melanoma = system: M14 melanoma
RPMI-8226 leukemia = system: RPMI-8226 leukemia
UO-31 renal = system: UO-31 renal
HCT-116 colon = system: HCT-116 colon
HCT-15 colon = system: HCT-15 colon
UACC-257 melanoma = system: UACC-257 melanoma
A549 NSCLC = system: A549 NSCLC
HS 578T breast = system: HS 578T breast
NCI-H522 lung = system: NCI-H522 lung
CAKI-1 renal = system: CAKI-1 renal
SK-MEL-28 melanoma = system: SK-MEL-28 melanoma
BT-549 breast = system: BT-549 breast
T-47D breast = system: T-47D breast
K-562 leukemia = system: K-562 leukemia
NCI-H226 lung = system: NCI-H226 lung
MDA-MB-435 = system: MDA-MB-435
SR leukemia = system: SR leukemia
MCF7 breast = system: MCF7 breast
COLO 205 colon = system: COLO 205 colon
OVCAR-4 ovarian = system: OVCAR-4 ovarian
NCI-H460 lung = system: NCI-H460 lung
DU-145 prostate = system: DU-145 prostate
HT29 colon = system: HT29 colon
HOP-92 NSCLC = system: HOP-92 NSCLC
PC-3 prostate = system: PC-3 prostate
ACHN renal = system: ACHN renal
MALME-3M melanoma = system: MALME-3M melanoma
SK-MEL-2 melanoma = system: SK-MEL-2 melanoma
OVCAR-8 ovarian = system: OVCAR-8 ovarian
SW-620 colon = system: SW-620 colon
MDA-MB-231 breast = system: MDA-MB-231 breast
SNB-75 CNS = system: SNB-75 CNS
UACC-62 melanoma = system: UACC-62 melanoma
OVCAR-5 ovarian = system: OVCAR-5 ovarian
CCRF-CEM leukemia = system: CCRF-CEM leukemia
SF-539 CNS = system: SF-539 CNS
SN12C renal = system: SN12C renal
SK-MEL-5 melanoma = system: SK-MEL-5 melanoma
HCC-2998 colon = system: HCC-2998 colon
LOX IMVI melanoma = system: LOX IMVI melanoma
HOP-62 NSCLC = system: HOP-62 NSCLC
786-0 renal = system: 786-0 renal
RXF 393 renal = system: RXF 393 renal

For `CCNC(=O)N1CCc2cc(OC)c(OCCc3ccc(OC)cc3)cc2C1c1ccc([N+](=O)[O-])cc1C` (stereo unspecified), the GI50 (KM12 colon) was 4.64 µM, the TGI (KM12 colon) was > 100 µM and the GI50 (IGROV1 ovarian) was 0.759 µM. For the same compound, the TGI (IGROV1 ovarian) was > 100 µM, the GI50 (SF-295 CNS) was 0.576 µM and the TGI (SF-295 CNS) was > 100 µM. For the same compound, the GI50 (SNB-19 CNS) was 1.33 µM, the TGI (SNB-19 CNS) was > 100 µM and the GI50 (MOLT-4 leukemia) was 0.485 µM. The TGI (MOLT-4 leukemia) was > 100 µM, the GI50 (EKVX NSCLC) was > 100 µM and the TGI (EKVX NSCLC) was > 100 µM. The GI50 (SF-268 CNS) was 0.881 µM, the TGI (SF-268 CNS) was > 100 µM and the GI50 (U251 CNS) was 0.58 µM. The TGI (U251 CNS) was > 100 µM, the GI50 (A498 renal) was 1.55 µM and the TGI (A498 renal) was 6.69 µM. The GI50 (HL-60(TB) leukemia) was 0.608 µM, the TGI (HL-60(TB) leukemia) was 10.6 µM and the GI50 (SK-OV-3 ovarian) was 2.83 µM. The TGI (SK-OV-3 ovarian) was > 100 µM, the GI50 (M14 melanoma) was 0.759 µM and the TGI (M14 melanoma) was > 100 µM. It also gave a GI50 (RPMI-8226 leukemia) of 0.631 µM, a TGI (RPMI-8226 leukemia) of 7.14 µM and a GI50 (UO-31 renal) of 1.54 µM. For the same compound, the TGI (UO-31 renal) was > 100 µM, the GI50 (HCT-116 colon) was 0.437 µM and the TGI (HCT-116 colon) was > 100 µM. For the same compound, the GI50 (HCT-15 colon) was 0.382 µM, the TGI (HCT-15 colon) was > 100 µM and the GI50 (UACC-257 melanoma) was 3.54 µM. For the same compound, the TGI (UACC-257 melanoma) was > 100 µM, the GI50 (A549 NSCLC) was 0.84 µM and the TGI (A549 NSCLC) was > 100 µM. For the same compound, the GI50 (HS 578T breast) was 1.57 µM, the TGI (HS 578T breast) was 7.35 µM and the GI50 (NCI-H522 lung) was 0.73 µM. For the same compound, the TGI (NCI-H522 lung) was 3.41 µM, the GI50 (CAKI-1 renal) was 1.09 µM and the TGI (CAKI-1 renal) was > 100 µM. The GI50 (SK-MEL-28 melanoma) was 0.869 µM, the TGI (SK-MEL-28 melanoma) was > 100 µM and the GI50 (BT-549 breast) was 1.67 µM. The TGI (BT-549 breast) was 6.12 µM, the GI50 (T-47D breast) was 3.34 µM and the TGI (T-47D breast) was > 100 µM. The GI50 (K-562 leukemia) was 0.381 µM, the TGI (K-562 leukemia) was > 100 µM and the GI50 (NCI-H226 lung) was 2.09 µM. For the same compound, the TGI (NCI-H226 lung) was > 100 µM, the GI50 (MDA-MB-435) was 0.491 µM and the TGI (MDA-MB-435) was > 100 µM. For the same compound, the GI50 (SR leukemia) was 0.327 µM, the TGI (SR leukemia) was > 100 µM and the GI50 (MCF7 breast) was 0.54 µM. For the same compound, the TGI (MCF7 breast) was > 100 µM, the GI50 (COLO 205 colon) was 0.797 µM and the TGI (COLO 205 colon) was > 100 µM. The GI50 (OVCAR-4 ovarian) was 2.8 µM, the TGI (OVCAR-4 ovarian) was > 100 µM and the GI50 (NCI-H460 lung) was 0.368 µM. The TGI (NCI-H460 lung) was 3.3 µM, the GI50 (DU-145 prostate) was 1.87 µM and the TGI (DU-145 prostate) was > 100 µM. It also gave a GI50 (HT29 colon) of 0.706 µM, a TGI (HT29 colon) of 6.04 µM and a GI50 (HOP-92 NSCLC) of 1.04 µM. The TGI (HOP-92 NSCLC) was 8.03 µM, the GI50 (PC-3 prostate) was 0.559 µM and the TGI (PC-3 prostate) was > 100 µM. For the same compound, the GI50 (ACHN renal) was 0.875 µM, the TGI (ACHN renal) was > 100 µM and the GI50 (MALME-3M melanoma) was 4.12 µM. For the same compound, the TGI (MALME-3M melanoma) was > 100 µM, the GI50 (SK-MEL-2 melanoma) was 2.37 µM and the TGI (SK-MEL-2 melanoma) was > 100 µM. For the same compound, the GI50 (OVCAR-8 ovarian) was 0.812 µM, the TGI (OVCAR-8 ovarian) was > 100 µM and the GI50 (SW-620 colon) was 0.551 µM. For the same compound, the TGI (SW-620 colon) was > 100 µM, the GI50 (MDA-MB-231 breast) was 0.797 µM and the TGI (MDA-MB-231 breast) was > 100 µM. It also gave a GI50 (SNB-75 CNS) of 0.68 µM, a TGI (SNB-75 CNS) of 6.95 µM and a GI50 (UACC-62 melanoma) of 0.547 µM. The TGI (UACC-62 melanoma) was > 100 µM, the GI50 (OVCAR-5 ovarian) was 2.14 µM and the TGI (OVCAR-5 ovarian) was > 100 µM. For the same compound, the GI50 (CCRF-CEM leukemia) was 0.662 µM, the TGI (CCRF-CEM leukemia) was > 100 µM and the GI50 (SF-539 CNS) was 0.702 µM. For the same compound, the TGI (SF-539 CNS) was 6.77 µM, the GI50 (SN12C renal) was 1.84 µM and the TGI (SN12C renal) was > 100 µM. It also gave a GI50 (SK-MEL-5 melanoma) of 0.794 µM, a TGI (SK-MEL-5 melanoma) of 3.59 µM and a GI50 (HCC-2998 colon) of 1.95 µM. The TGI (HCC-2998 colon) was > 100 µM, the GI50 (LOX IMVI melanoma) was 0.387 µM and the TGI (LOX IMVI melanoma) was 7.65 µM. For the same compound, the GI50 (HOP-62 NSCLC) was 2.28 µM, the TGI (HOP-62 NSCLC) was > 100 µM and the GI50 (786-0 renal) was 0.619 µM. For the same compound, the TGI (786-0 renal) was > 100 µM.

With `CO/N=C1\CCc2c(sc(NC(=O)c3cccc(C(F)(F)F)c3)c2C(N)=O)C1` the GI50 (MOLT-4 leukemia) was > 100 µM, the TGI (MOLT-4 leukemia) was > 100 µM and the GI50 (SF-268 CNS) was 4.25 µM. For the same compound, the TGI (SF-268 CNS) was > 100 µM, the GI50 (HL-60(TB) leukemia) was > 100 µM and the TGI (HL-60(TB) leukemia) was > 100 µM. For the same compound, the GI50 (RXF 393 renal) was 1.91 µM, the TGI (RXF 393 renal) was 3.65 µM and the GI50 (BT-549 breast) was 3.53 µM. The TGI (BT-549 breast) was > 100 µM, the GI50 (K-562 leukemia) was > 100 µM and the TGI (K-562 leukemia) was > 100 µM. For the same compound, the GI50 (SR leukemia) was > 100 µM, the TGI (SR leukemia) was > 100 µM and the GI50 (MCF7 breast) was 2.37 µM. For the same compound, the TGI (MCF7 breast) was > 100 µM, the GI50 (HOP-92 NSCLC) was 1.56 µM and the TGI (HOP-92 NSCLC) was 4.06 µM. The GI50 (SK-MEL-2 melanoma) was 4.08 µM and the TGI (SK-MEL-2 melanoma) was 96.3 µM.
